As a reminder, the Km is the substrate concentration at which the rate is half of its maximum.

The test system of data set [1] is CYP1A1. As to the kind of experiment: Enzyme kinetic analysis of EROD (resorufin formation from 7-ethoxyresorufin) in porcine hepatic microsomes. The class given is in vitro ADME. The following applies: CI 95% confidence interval. The procedure: (§1) All procedures were done on ice.
(§2) All steroids were dissolved in methanol. […] Kinetic studies were performed under linear conditions.
V=(Vmax1*S)/(Km1+S)+(V max2*S)/(Km2+S),
where Km1 and Km2 are Michaelis constants for the high- and low-affinity components, respectively, and Vmax1 and Vmax2 are the maximum reaction velocities for the high- and low-affinity components, respectively.

In data set [2] the test system is CYP1A1. Put plainly: Inhibition of 7-ethoxyresorufin O-deethylase (EROD) activity in porcine hepatic microsomes. The procedure:
as §1, §2
(§3) The activities were measured in pooled microsomes, thus taking into consideration between-individual variations in enzyme activities and potential response to the presence of steroids.

Data set [3] has as its target T1, CYP2E1 (Sus scrofa, UniProt P79383). Put plainly: Inhibition of p-nitrophenol hydroxylase (PNPH) activity in porcine hepatic microsomes. The procedure:
as §1, §2, §3

Data set [4] has as its target T2, CYP1A2 (Sus scrofa, UniProt F1SJ26).
T2 sequence (F1SJ26 1-516): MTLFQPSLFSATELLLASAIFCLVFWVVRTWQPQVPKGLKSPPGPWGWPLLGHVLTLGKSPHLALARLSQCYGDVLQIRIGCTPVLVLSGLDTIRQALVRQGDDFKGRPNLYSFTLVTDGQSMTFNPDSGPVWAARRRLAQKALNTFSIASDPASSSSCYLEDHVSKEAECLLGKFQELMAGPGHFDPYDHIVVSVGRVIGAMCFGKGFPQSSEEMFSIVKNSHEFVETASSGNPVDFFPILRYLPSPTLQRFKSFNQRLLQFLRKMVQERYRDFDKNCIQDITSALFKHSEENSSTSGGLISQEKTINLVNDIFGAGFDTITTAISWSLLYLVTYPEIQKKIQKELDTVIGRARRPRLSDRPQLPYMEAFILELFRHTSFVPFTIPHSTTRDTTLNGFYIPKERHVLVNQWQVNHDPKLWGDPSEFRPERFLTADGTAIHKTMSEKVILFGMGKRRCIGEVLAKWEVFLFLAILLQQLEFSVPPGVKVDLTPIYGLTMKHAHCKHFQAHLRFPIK
Put plainly: Inhibition of 7-methoxyresorufin O-demethylase (MROD) activity in porcine hepatic microsomes. The procedure:
as §1, §2, §3

The target in data set [5] is T2, CYP1A2. As for the experimental part: as §1, §2
Data set [6] concerns the target T1, CYP2E1. The following applies: cited from earlier work.
Data set [7] relates to CYP1A1. The arrangement: method as in Zamaratskaia et al., [2009]. The following applies: 1.8 to 72 pmol/ml; microsomes from entire and castrated male pigs; ref Zamaratskaia et al., [2009]; cited from earlier work.
[8] abbreviates: steroid 0.55, 1.0 and 100.0 µM, pooled microsomes from entire male pigs.
The mark [9] stands for this setting: all concentrations tested (up to 100.0 µM), microsomes from mature male pigs.
Setting [10] is: 100 µM steroid, pooled microsomes from three entire male pigs, altered = differs from control by at least 30%.
Setting [11] is: lower concentrations (0.02 and 1.0 µM), pooled microsomes from entire male pigs.

Structures are written as SMILES. Like-named read-outs stand apart in the source and are kept apart here.

T1 sequence (P79383 whole entry): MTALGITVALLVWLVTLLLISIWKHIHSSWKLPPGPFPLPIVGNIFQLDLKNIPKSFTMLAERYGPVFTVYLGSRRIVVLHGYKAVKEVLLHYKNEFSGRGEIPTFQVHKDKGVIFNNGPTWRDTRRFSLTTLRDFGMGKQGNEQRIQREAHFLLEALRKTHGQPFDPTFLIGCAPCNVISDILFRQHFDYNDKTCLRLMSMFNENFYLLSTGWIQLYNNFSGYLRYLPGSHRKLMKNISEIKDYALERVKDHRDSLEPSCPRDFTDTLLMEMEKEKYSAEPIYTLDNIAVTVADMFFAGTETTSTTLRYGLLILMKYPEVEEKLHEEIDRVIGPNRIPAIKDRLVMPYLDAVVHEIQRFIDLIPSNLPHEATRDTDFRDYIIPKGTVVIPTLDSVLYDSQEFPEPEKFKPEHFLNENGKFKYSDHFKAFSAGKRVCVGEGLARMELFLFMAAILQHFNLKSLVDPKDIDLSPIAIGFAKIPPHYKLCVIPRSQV

As to `CCOc1ccc2nc3ccc(=O)cc-3oc2c1` [7-ethoxyresorufin], the Km in the data set with CYP1A1 [1] (high affinity component) is 0.01 µM. For the same compound, in the data set with CYP1A1 [1] (low affinity component), the Km came out at 1.7 µM and the “Vmax, pmol/min/mg (CI)” value is listed as 15.2 (9.64–20.71) pmol/min/mg.
`C[C@]12CC[C@H](O)C[C@@H]1CC[C@@H]1[C@@H]2CC[C@]2(C)C=CC[C@@H]12` [3β-androstenol]: the “Inhibition of EROD activity” value in the data set on CYP1A1 [2] (setting [8]) was “only 17β-estradiol and 17α-estradiol inhibited”. In addition, the “Inhibition of PNPH activity” value at CYP2E1 [3] (setting [9]) was “inhibited only by 100 µM of 17β-estradiol”. For the same compound, the “Inhibition of MROD activity” value on CYP1A2 [4] (setting [8]) was “only 17β-estradiol and 17α-estradiol inhibited”.
As for `COc1ccc2nc3ccc(=O)cc-3oc2c1` [7-methoxy-resorufin, 7-methoxyresorufin], the Km at CYP1A2 [5] turned out to be 0.13 µM.
With `C[C@]12CC[C@@H]3c4ccc(O)cc4CC[C@H]3[C@@H]1CC[C@@H]2O` [17β-estradiol], on CYP2E1 [6] (microsomes from prepubertal male pigs, ref Zamaratskaia et al. ([2007])), the “Type of inhibition of PNPH” value is “mixed inhibitor”. Further, the “Inhibition of PNPH activity” value was “inhibit” on CYP2E1 [6] (physiological concentrations, ref Rasmussen et al. (2010a)); “Inhibition of PNPH activity was observed” at CYP2E1 [3] (100 µM steroid, pooled microsomes from three mature entire male pigs); “observed only in the presence of high concentrations” at CYP2E1 [3] (lower concentrations (0.02 and 1.0 µM), microsomes from mature male pigs). Further, the “Inhibition of EROD activity” value is on record as “inhibited” with CYP1A1 [2] (setting [10]) and “no inhibitory effect” in the data set with CYP1A1 [2] (setting [11]). Besides, the “Effect on EROD activity” value with CYP1A1 [7] is “did not alter”. For the same compound, the “Inhibition of MROD activity” value at CYP1A2 [4] (setting [10]) is on record as “inhibited”; at CYP1A2 [4] (setting [11]) it was “no inhibitory effect”.
Regarding `C[C@]12CCC(=O)C[C@@H]1CC[C@@H]1[C@@H]2CC[C@]2(C)[C@@H](O)CC[C@@H]12` [DHT, dihydrotestosterone], in the data set with CYP1A1 [2] (setting [8]), the “Inhibition of EROD activity” value was “only 17β-estradiol and 17α-estradiol inhibited”. Also, the “Inhibition of PNPH activity” value at CYP2E1 [3] (setting [9]) is recorded as “inhibited only by 100 µM of 17β-estradiol”. Moreover, the “Magnitude of MROD inhibition” value on CYP1A2 [4] (steroid 0.55, 1.0 and 100.0 µM, relative to control incubations) is given as at most 30%.
Regarding `C[C@]12CC[C@@H]3c4ccc(O)cc4CC[C@H]3[C@@H]1CC[C@H]2O` [17α-estradiol], the “Inhibition of EROD activity” value is “inhibited” in the data set with CYP1A1 [2] (setting [10]) and “no inhibitory effect” in the data set with CYP1A1 [2] (setting [11]). In addition, at CYP2E1 [3] (setting [9]), the “Inhibition of PNPH activity” value is recorded as “inhibited only by 100 µM of 17β-estradiol”. Further, the “Inhibition of MROD activity” value at CYP1A2 [4] (setting [10]) was “inhibited”; at CYP1A2 [4] (setting [11]) it was “no inhibitory effect”.

These data come from paper PMC3131678 (Interdisciplinary Toxicology, 2011).
